Assay results taken from patent publication US9387219B2, “Edible composition” (Conopco, Inc., priority 2011, dated 2016).

What was measured:
SGLT1 = target: T1, SGLT1 (Homo sapiens, UniProt P13866); test: Glucose transport inhibitor cell screening assay, 5 mM D-glucose for 15 minutes (SGLT1 inhibition); assay type: cell-based; conditions: for Class (assigned class of transporter inhibited): assigned from % inhibition at 5 mM and 25 mM D-glucose in Caco-2 cells; for inhibition at 300 µM: differentiated Caco-2 monolayer, 15 minutes, active at 300 uM; for inhibition at 300 µM / SGLT1 inhibitory activity (in words): 5 mM D-glucose; for SGLT1 inhibitory activity (in words): Caco-2 cell model
T1 construct: endogenous in cells; host or cells: differentiated Caco-2 cell monolayers (ATCC)
T1 sequence (P13866 1-664): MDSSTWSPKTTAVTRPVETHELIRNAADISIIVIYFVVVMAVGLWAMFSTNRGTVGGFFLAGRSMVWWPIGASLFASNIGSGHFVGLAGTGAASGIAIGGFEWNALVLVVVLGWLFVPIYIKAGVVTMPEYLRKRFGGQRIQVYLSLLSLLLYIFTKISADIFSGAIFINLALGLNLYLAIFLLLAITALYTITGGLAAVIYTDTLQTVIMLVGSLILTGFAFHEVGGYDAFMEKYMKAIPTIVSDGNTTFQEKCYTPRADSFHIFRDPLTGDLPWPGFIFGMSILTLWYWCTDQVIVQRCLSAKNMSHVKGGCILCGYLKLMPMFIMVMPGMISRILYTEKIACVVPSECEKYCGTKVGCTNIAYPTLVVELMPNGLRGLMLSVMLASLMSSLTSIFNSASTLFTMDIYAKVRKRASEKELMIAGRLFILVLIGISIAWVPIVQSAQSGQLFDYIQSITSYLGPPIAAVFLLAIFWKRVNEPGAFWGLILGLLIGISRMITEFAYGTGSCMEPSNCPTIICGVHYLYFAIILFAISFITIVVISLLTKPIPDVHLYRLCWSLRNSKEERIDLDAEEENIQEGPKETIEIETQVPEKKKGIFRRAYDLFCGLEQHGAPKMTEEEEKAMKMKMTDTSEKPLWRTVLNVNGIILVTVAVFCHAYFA
Experimental: (§1) Human epithelial colorectal adenocarcinoma (Caco-2) cells were obtained from the American Type Culture Collection (ATCC) and cultured in Growth Medium consisting of Dulbecco's modified Eagle's medium (containing Glutamax-1, 4.5 g/L D-glucose and 25 mM 4-(2-hydroxyethyl)-1-piperazine ethanesulphonic acid (Hepes) (Invitrogen)), 10% foetal bovine serum (Sigma), 1% non-essential amino acids (Invitrogen) and 1 mM sodium pyruvate (Sigma)). The cells were routinely passaged at approximately 80% confluence using TrypLE™ Express Stable Trypsin-Like Enzyme (Invitrogen) to detach the cells, and seeded at approximately 114 cells per mm^2 in fresh tissue culture flasks. Only cells between the passage numbers 45 and 49 were used for experiments.
(§2) Corning® HTS Transwell® 96 well permeable insert supports (Sigma) were collagen coated with 40 μl of 50 μg/ml rat tail collagen type I (BD Biosciences) in 0.02 M acetic acid for one hour at room temperature under sterile conditions. The inserts were washed twice in phosphate buffered saline (PBS (Invitrogen)) and the Caco-2 cells seeded into the inserts at 9.6×10^5 cell/ml (75 μl per insert) in Growth Medium and 30 ml of Growth Medium added to the feeder plate below. The cells were left to attach to the collagen matrix and form monolayers over 48 hours at 37° C., 5% CO2. Both inserts and feeder plate were washed in PBS and the cells incubated with BD Entero-STIM™ Enterocyte Differentiation Medium containing MITO+™ Serum Extender solution (both BD Biosciences), 75 μl per insert and 30 ml in the feeder plate, for a further 48 hours at 37° C., 5% CO2.
(§3) Differentiated cell monolayers were washed gently in Dulbecco's Phosphate Buffered Saline containing CaCl2 and MgCl2 (PBS(+) (Invitrogen)) and the inserts transferred to a new Corning® HTS Transwell®-96 well receiver plate (Sigma). The cells were incubated with fresh PBS(+) (75 μl per insert and 225 μl per well) for 60 minutes at 37° C., 5% CO2. The PBS(+) was gently aspirated and replaced with 75 μl per insert of either 5 mM D-glucose (Sigma)±test active or 25 mM D-glucose±test active in triplicate and 225 μl per well of PBS(+) quickly added to each well. The 5 mM glucose wells and the 25 mM glucose wells were incubated at 37° C., 5% CO2 for 15 minutes and 30 minutes, respectively. Details of all the actives tested are found in table 1. The cell inserts were transferred to a new receiver plate, the supernatant gently aspirated from the cells and replaced with 100 μl of 100 μM of Lucifer Yellow (Sigma) solution to confirm the integrity of the monolayers. 225 μl of PBS(+) was added to each well and incubated at 37° C., 5% CO2 for 1 hour. The cell inserts were then discarded and the permeability of the membranes to Lucifer Yellow checked by measuring the fluorescence of the samples at 485 nm (excitation) and 530 nm (emission) on a Spectramax Gemini EM fluorescence microplate reader.
(§4) The amount of glucose transported across the cell monolayers was measured using a glucose assay based on Invitrogen's Amplex Red Glucose/Glucose oxidase Assay Kit. Briefly, 50 μl of each test sample was transferred to a black sided/clear bottom 96-well plate (Greiner Bio-One) to which 100 μl of reaction buffer (0.5 μl 10 mM Ampliflu Red, 1 μl 10 U/ml Horse Radish peroxidase, 1 μl 100 U/ml glucose oxidase and 97.5 μl PBS (all Sigma)) was added. After 10 minutes incubation at room temperature, the fluorescence of the samples were measured at 530 nm (excitation) and 590 nm (emission) on a Spectramax Gemini EM fluorescence microplate reader and the glucose concentration extrapolated from a standard curve.
(§5) At higher D-glucose concentrations, the SGLT1 transporter becomes saturated and consequently the majority of glucose transport across the monolayer is driven by the low affinity, high capacity GLUT2 transporter that is targeted to the apical membrane only following an initial SGLT1-dependent transport of glucose.

GLUT2 = target: T2, GLUT2 (Homo sapiens, UniProt P11168); test: Glucose transport inhibitor cell screening assay, 25 mM D-glucose for 30 minutes (GLUT2 inhibition); assay type: cell-based; conditions: for inhibition at 150 µM / % Glucose Transport inhibition 25 mM: differentiated Caco-2 monolayer, 30 minutes, active at 150 uM; for GLUT2 inhibitory activity (in words): Caco-2 cell model
T2 construct: endogenous in cells; host or cells: differentiated Caco-2 cell monolayers (ATCC)
T2 sequence (P11168 1-524): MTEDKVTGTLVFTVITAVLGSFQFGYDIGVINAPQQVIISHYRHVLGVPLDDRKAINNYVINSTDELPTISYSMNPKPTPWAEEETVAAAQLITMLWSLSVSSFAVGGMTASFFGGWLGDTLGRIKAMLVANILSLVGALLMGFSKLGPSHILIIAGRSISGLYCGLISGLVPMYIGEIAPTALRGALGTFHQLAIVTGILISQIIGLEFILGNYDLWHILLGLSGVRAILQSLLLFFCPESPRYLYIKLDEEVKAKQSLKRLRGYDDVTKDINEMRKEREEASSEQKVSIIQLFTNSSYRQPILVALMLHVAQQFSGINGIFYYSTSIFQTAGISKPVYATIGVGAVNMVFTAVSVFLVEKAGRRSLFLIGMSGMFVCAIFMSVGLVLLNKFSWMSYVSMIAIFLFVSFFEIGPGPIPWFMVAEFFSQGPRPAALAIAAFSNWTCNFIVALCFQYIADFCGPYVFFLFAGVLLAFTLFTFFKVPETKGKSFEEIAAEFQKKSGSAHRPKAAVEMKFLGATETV
Experimental: as §1, §2, §3, §4, §5

Structure (SMILES)	Class (assigned class of transporter inhibited) (SGLT1)	inhibition at 300 µM (SGLT1) [%]	inhibition at 150 µM (GLUT2) [%]	SGLT1 inhibitory activity (in words) (SGLT1)	GLUT2 inhibitory activity (in words) (GLUT2)	% Glucose Transport inhibition 25 mM (GLUT2) [%]
O=c1cc(-c2ccc(O)cc2)oc2cc(O)cc(O)c12 [Apigenin]	GLUT2 (GLUT2 inhibitors having ≧20% inhibition at both 5 mM and 25 mM D-glucose levels)	56.8	49.3			
C[C@@H]1O[C@@H](OC[C@H]2O[C@@H](Oc3cc4c(O)cc(O)cc4[o+]c3-c3ccc(O)c(O)c3)[C@H](O)[C@@H](O)[C@@H]2O)[C@H](O)[C@H](O)[C@H]1O [Cyanidin-3-rutinoside]	None			absence of SGLT1 inhibitory activity		
Oc1ccc(-c2[o+]c3cc(O)cc(O)c3cc2O)cc1 [Pelargonidin]		4.07				
COc1ccc([C@@H]2CC(=O)c3c(O)cc(O)cc3O2)cc1O [Hesperetin]	GLUT2 (GLUT2 inhibitors having ≧20% inhibition at both 5 mM and 25 mM D-glucose levels)	72.3	74.4			
O=C(/C=C/c1ccc(O)c(O)c1)O[C@H](Cc1ccc(O)c(O)c1)C(=O)O [rosmarinic acid]				no inhibitory activity	no inhibitory activity	
O=c1c(O)c(-c2ccc(O)c(O)c2)oc2cc(O)cc(O)c12 [Quercetin]	GLUT2 (GLUT2 inhibitors having ≧20% inhibition at both 5 mM and 25 mM D-glucose levels)	80.8	61.4			
O=C(/C=C/c1ccc(O)c(O)c1)O[C@@H]1C[C@](O)(C(=O)O)C[C@@H](O)[C@H]1O [chlorogenic acid]				no inhibitory activity	no inhibitory activity	
O=c1cc(-c2ccc(O)cc2)oc2cc(OC3O[C@H](CO)[C@@H](O)[C@H](O)[C@H]3O)cc(O)c12 (stereo partly shown) [Apigenin-7-glucoside]						12.81
O=C1C[C@@H](c2ccc(O)cc2)Oc2cc(O)cc(O)c21 [Naringenin]	GLUT2 (GLUT2 inhibitors having ≧20% inhibition at both 5 mM and 25 mM D-glucose levels)	69	57			
O=c1c(O)c(-c2ccc(O)cc2)oc2cc(O)cc(O)c12 [Kaempferol]	GLUT2 (GLUT2 inhibitors having ≧20% inhibition at both 5 mM and 25 mM D-glucose levels)	26	32.4			
O=c1cc(-c2ccc(O)c(O)c2)oc2cc(O)cc(O)c12 [Luteolin]	GLUT2 (GLUT2 inhibitors having ≧20% inhibition at both 5 mM and 25 mM D-glucose levels)	77.4	63.2			
COc1cc(-c2[o+]c3cc(O)cc(O)c3cc2O[C@@H]2O[C@H](CO)[C@H](O)[C@H](O)[C@H]2O)cc(OC)c1O [Malvidin 3-O-Galactoside]	None			absence of SGLT1 inhibitory activity		10.41
O=c1c(-c2ccc(O)cc2)coc2cc(O)cc(O)c12 [Genistein]	GLUT2 (GLUT2 inhibitors having ≧20% inhibition at both 5 mM and 25 mM D-glucose levels)	56.5	57.7			
O=c1c(O)c(-c2cc(O)c(O)c(O)c2)oc2cc(O)cc(O)c12 [Myricetin]	GLUT2 (GLUT2 inhibitors having ≧20% inhibition at both 5 mM and 25 mM D-glucose levels)	76.8	55			
O=c1c(-c2ccc(O)cc2)coc2c([C@@H]3O[C@H](CO)[C@@H](O)[C@H](O)[C@H]3O)c(O)ccc12 [Daidze in-8-C-glucoside]	SGLT1			inhibition of SGLT1		
O=C1C[C@@H](c2ccccc2)Oc2cc(O)cc(O)c21 [Pinocembrin]	GLUT2 (GLUT2 inhibitors having ≧20% inhibition at both 5 mM and 25 mM D-glucose levels)	47.7	48.1			
O=c1c(O[C@@H]2O[C@H](CO)[C@@H](O)[C@H](O)[C@H]2O)c(-c2ccc(O[C@@H]3O[C@H](CO)[C@@H](O)[C@H](O)[C@H]3O)c(O)c2)oc2cc(O)cc(O)c12 [Quercetin-3,4′-diglucoside]	None			destroys this inhibitory action		
O=C1C[C@@H](c2ccc(O)c(O)c2)Oc2cc(O[C@@H]3O[C@H](CO)[C@@H](O)[C@H](O)[C@H]3O)cc(O)c21 [Eriodictiol-7-O-glucoside]	SGLT1			inhibition of SGLT1		4.98
Oc1cc(O)c2cc(O)c(-c3cc(O)c(O)c(O)c3)[o+]c2c1 [Delphinindin]						15.86
OC[C@H]1O[C@@H](Oc2cc3c(O)cc(O)cc3[o+]c2-c2ccc(O)c(O)c2)[C@H](O)[C@@H](O)[C@@H]1O [Cyanidin-3-glucoside]	SGLT1			inhibition of SGLT1		
OC[C@H]1O[C@@H](Oc2ccc(O)cc2)[C@H](O)[C@@H](O)[C@@H]1O [arbutin]				lack of SGLT1 inhibitory activity		
O=C(CCc1ccc(O)cc1)c1c(O)cc(O)cc1O [Phloretin, reference compound]			76.1			
OC[C@H]1O[C@@H](Oc2cc3c(O)cc(O)cc3[o+]c2-c2cc(O)c(O)c(O)c2)[C@H](O)[C@@H](O)[C@@H]1O [Delphinidin-3-glucoside]	SGLT1			inhibition of SGLT1		
